# Source: PMC4187505 (Journal of the American Heart Association: Cardiovascular …, 2014)
# Key:
# [1] = biological target: hlipocalin-2 (human lipocalin-2, neutrophil gelatinase-associated lipocalin) (Homo sapiens, UniProt P80188); test: isothermal titration calorimetry; type: binding
# nonreducing SDS-PAGE = biological target: the molecule itself; test: nonreducing SDS-PAGE
# Sequence of hlipocalin-2 (human lipocalin-2, neutrophil gelatinase-associated lipocalin) (P80188 21-198): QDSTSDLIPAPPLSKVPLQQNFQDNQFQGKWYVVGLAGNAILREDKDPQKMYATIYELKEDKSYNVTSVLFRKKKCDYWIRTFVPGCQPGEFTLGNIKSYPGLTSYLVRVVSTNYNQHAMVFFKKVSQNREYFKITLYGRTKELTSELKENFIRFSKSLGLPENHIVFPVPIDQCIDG
Kd [1],Molecule,ratio of homodimer/monomer (nonreducing SDS-PAGE)
0.487 µM,CCCCC/C=C\C/C=C\CCCCCCCC(=O)O [linoleic acid],
1470 µM,CCCCCCCC/C=C\CCCCCCCC(=O)O [oleic acid],
,"human lipocalin‐2 mutant C87A (cysteine 87 replaced by alanine) (natural protein, UniProt P80188 21-198, looked up, contains a significantly lesser amount of polyamines than wild type) QDSTSDLIPAPPLSKVPLQQNFQDNQFQGKWYVVGLAGNAILREDKDPQKMYATIYELKEDKSYNVTSVLFRKKKCDYWIRTFVPGAQPGEFTLGNIKSYPGLTSYLVRVVSTNYNQHAMVFFKKVSQNREYFKITLYGRTKELTSELKENFIRFSKSLGLPENHIVFPVPIDQCIDG",> 10 homodimer/monomer
